Among the data in PubChem BioAssay AID328 (DTP/NCI, 2004) are T/C values, retold here.

Several values for one entry are separate records, joined by “and”; a condition that tells them apart may be missing. Equal values may be shown once. Inconclusive results and toxic doses are left out.

In this experiment the test system is BDF1 mice, P388 leukemia ip, median survival T/C. In words: NCI In Vivo Anticancer Drug Screen. Data for tumor model P388 Leukemia (intraperitoneal) in B6D2F1 (BDF1) mice. The settings on record: endpoint: median survival time, higher = longer survival. In short, it runs like this: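 Reported as T/C, where T is the survival measurement in dosed animals and C the same measurement in vehicle controls.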

The mark [1] stands for this setting: dose: 25.0 mg/kg/injection, schedule: Q01DX009 (ip), vehicle: saline with Tween-80.
[2] abbreviates: dose: 50.0 mg/kg/injection, schedule: Q01DX009 (ip), vehicle: saline with Tween-80.
Where [3] appears, read: dose: 50.0 mg/kg/injection, schedule: Q04DX003 (ip), vehicle: saline with Tween-80.
[4] abbreviates: dose: 100.0 mg/kg/injection, schedule: Q01DX009 (ip), vehicle: saline with Tween-80.
Where [5] appears, read: dose: 100.0 mg/kg/injection, schedule: Q04DX003 (ip), vehicle: saline with Tween-80.
Where [6] appears, read: dose: 200.0 mg/kg/injection, schedule: Q01DX009 (ip), vehicle: saline with Tween-80.
[7] abbreviates: dose: 200.0 mg/kg/injection, schedule: Q04DX003 (ip), vehicle: saline with Tween-80.
[8] abbreviates: dose: 400.0 mg/kg/injection, schedule: Q04DX003 (ip), vehicle: saline with Tween-80.

Consider `Cc1ccc(NC(=O)c2ccccc2)cc1[As]=[As]c1cc(NC(=O)c2ccccc2)ccc1C` (centres undefined), for which the T/C (dose: 1.25 mg/kg/injection, schedule: Q01DX009 (ip), vehicle: gum acacia) was 150 % of control; the T/C (dose: 1.25 mg/kg/injection, schedule: Q04DX003 (ip), vehicle: gum acacia) was 122 % of control; the T/C (dose: 2.2 mg/kg/injection, schedule: Q04DX003 (ip), vehicle: gum acacia) was 113 % of control; the T/C (dose: 2.5 mg/kg/injection, schedule: Q01DX009 (ip), vehicle: gum acacia) is 165 % of control; the T/C (dose: 3.3 mg/kg/injection, schedule: Q04DX003 (ip), vehicle: Klucel (hydroxypropylcellulose) (HPC)) is 116 % of control; the T/C (dose: 5.0 mg/kg/injection, schedule: Q04DX003 (ip), vehicle: Klucel (hydroxypropylcellulose) (HPC)) was 104 % of control. Also, the T/C (dose: 10.0 mg/kg/injection, schedule: Q04DX003 (ip), vehicle: gum acacia) was 154 % of control.
Turning to `O=C1OC(c2ccccc2)=C/C1=C/c1ccccc1O`, the T/C is 109 % of control under setting [1]; 91 % of control under setting [2]; 104 % of control under setting [3]; 97 % of control under setting [4]; 109 % of control under setting [5]; 97 % of control and 118 % of control under setting [6]. Further, the T/C runs as follows: under setting [7], 116 % of control; (dose: 300.0 mg/kg/injection, schedule: Q01DX009 (ip), vehicle: saline with Tween-80) 108 % of control; (dose: 400.0 mg/kg/injection, schedule: Q01DX009 (ip), vehicle: saline with Tween-80) 113 % of control and 124 % of control; under setting [8], 114 % of control; (dose: 500.0 mg/kg/injection, schedule: Q01DX009 (ip), vehicle: saline with Tween-80) 122 % of control.
`CCOC(=O)C/C(C)=N/NC(=O)CC(=O)N/N=C(\C)CC(=O)OCC`: the T/C (dose: 75.0 mg/kg/injection, schedule: Q01DX009 (ip), vehicle: saline) is 109 % of control; the T/C (dose: 150.0 mg/kg/injection, schedule: Q01DX009 (ip), vehicle: saline) is 105 % of control; the T/C (dose: 300.0 mg/kg/injection, schedule: Q01DX009 (ip), vehicle: saline) is 103 % of control.
Regarding `CC(C)C1OC(=O)C=C2C3(C)CC=CC4(C)C(=O)OC(C43)C3OC213` (centres undefined), the T/C was 109 % of control (dose: 5.0 micrograms/kg/injection, schedule: Q01DX009 (ip), vehicle: saline + alcohol); 100 % of control (dose: 20.0 micrograms/kg/injection, schedule: Q01DX009 (ip), vehicle: saline + alcohol); 90 % of control (dose: 80.0 micrograms/kg/injection, schedule: Q01DX009 (ip), vehicle: saline + alcohol); 109 % of control (dose: 250.0 micrograms/kg/injection, schedule: Q01DX009 (ip), vehicle: saline + alcohol); 109 % of control (dose: 1000.0 micrograms/kg/injection, schedule: Q01DX009 (ip), vehicle: saline + alcohol); 104 % of control (dose: 4000.0 micrograms/kg/injection, schedule: Q01DX009 (ip), vehicle: saline + alcohol).
Regarding `Nc1nc(Cc2ccccc2)c(CCCNc2ccccc2)c(=O)[nH]1`, the T/C was 107 % of control (dose: 6.25 mg/kg/injection, schedule: Q01DX009 (ip), vehicle: saline with Tween-80); 98 % of control under setting [1]; 96 % of control under setting [2].
Turning to `c1ccc(P(OC2CCCCC2)OC2CCCCC2)cc1`, the T/C is 109 % of control under setting [2], 109 % of control under setting [4] and 110 % of control under setting [6].
With `CCC(C)(CCC(=O)O)c1ccccc1` (centres undefined), the T/C was 97 % of control (dose: 100.0 mg/kg/injection, schedule: Q04DX002 (ip), vehicle: saline with Tween-80); 103 % of control (dose: 200.0 mg/kg/injection, schedule: Q04DX002 (ip), vehicle: saline with Tween-80); 106 % of control (dose: 400.0 mg/kg/injection, schedule: Q04DX002 (ip), vehicle: saline with Tween-80).
For `O=C(Nc1cc(C(F)(F)F)cc(C(F)(F)F)c1)Nc1c(Oc2ccc(Cl)cc2Cl)ccc(Cl)c1S(=O)(=O)O`, the T/C (dose: 50.0 mg/kg/injection, schedule: Q04DX003 (ip), vehicle: saline sonified) was 87 % of control and the T/C (dose: 100.0 mg/kg/injection, schedule: Q04DX003 (ip), vehicle: saline sonified) was 87 % of control.
Regarding `COc1ccc(CC#N)c(OCc2ccccc2)c1`, the T/C is, setting by setting: (dose: 12.5 mg/kg/injection, schedule: Q01DX009 (ip), vehicle: other) 104 % of control; (dose: 25.0 mg/kg/injection, schedule: Q01DX009 (ip), vehicle: other) 102 % of control; (dose: 50.0 mg/kg/injection, schedule: Q01DX009 (ip), vehicle: other) 98 % of control; (dose: 100.0 mg/kg/injection, schedule: Q01DX009 (ip), vehicle: other) 89 % of control; (dose: 200.0 mg/kg/injection, schedule: Q01DX009 (ip), vehicle: other) 95 % of control.
Turning to `CC(=O)Nc1ccc(S(=O)(=O)c2ccc([N+](=O)[O-])cc2)cc1`, the T/C by setting is: under setting [3], 101 % of control; under setting [5], 106 % of control; under setting [7], 105 % of control; under setting [8], 99 % of control.
As for `O=[N+]([O-])c1ccc(/C=C/c2ncc[nH]2)o1`, the T/C reads like this: (dose: 50.0 mg/kg/injection, schedule: Q04DX003 (ip), vehicle: Klucel (hydroxypropylcellulose) (HPC)) 100 % of control; (dose: 100.0 mg/kg/injection, schedule: Q04DX003 (ip), vehicle: Klucel (hydroxypropylcellulose) (HPC)) 100 % of control; (dose: 200.0 mg/kg/injection, schedule: Q04DX003 (ip), vehicle: Klucel (hydroxypropylcellulose) (HPC)) 100 % of control.
For the compound `C=CCN(CC=C)c1ncnc2[nH]ncc12`, the T/C is, setting by setting: under setting [1], 100 % of control; under setting [2], 100 % of control; under setting [4], 109 % of control.
As for `O=C(OCC1OC(n2cnc3c(=S)nc[nH]c32)C(OC(=O)c2ccc([N+](=O)[O-])cc2)C1OC(=O)c1ccc([N+](=O)[O-])cc1)c1ccc([N+](=O)[O-])cc1` (centres undefined), the T/C reads like this: (dose: 50.0 mg/kg/injection, schedule: Q01DX009 (ip), vehicle: Klucel (hydroxypropylcellulose) (HPC)) 100 % of control; (dose: 100.0 mg/kg/injection, schedule: Q01DX009 (ip), vehicle: Klucel (hydroxypropylcellulose) (HPC)) 109 % of control; (dose: 200.0 mg/kg/injection, schedule: Q01DX009 (ip), vehicle: Klucel (hydroxypropylcellulose) (HPC)) 109 % of control; (dose: 400.0 mg/kg/injection, schedule: Q01DX009 (ip), vehicle: Klucel (hydroxypropylcellulose) (HPC)) 118 % of control.
In the case of `C[C@]12CCC(=O)C=C1CC[C@@H]1[C@@H]2[C@@H](O)C[C@@]2(C)[C@H]1CC[C@]2(C)O`, the T/C under setting [4] is 86 % of control.
Consider `CC(=O)C(C)(NCc1ccccc1)c1ccccc1` (centres undefined), for which the T/C (dose: 45.0 mg/kg/injection, schedule: Q01DX001 (ip), vehicle: saline) was 104 % of control; the T/C (dose: 85.0 mg/kg/injection, schedule: Q01DX001 (ip), vehicle: saline) was 108 % of control and 116 % of control; the T/C (dose: 100.0 mg/kg/injection, schedule: Q01DX001 (ip), vehicle: saline) is 109 % of control; the T/C (dose: 135.0 mg/kg/injection, schedule: Q01DX001 (ip), vehicle: saline) was 120 % of control; the T/C (dose: 200.0 mg/kg/injection, schedule: Q01DX001 (ip), vehicle: saline) is 104 % of control; the T/C (dose: 300.0 mg/kg/injection, schedule: Q01DX001 (ip), vehicle: saline) is 100 % of control. Further, the T/C (dose: 400.0 mg/kg/injection, schedule: Q01DX001 (ip), vehicle: saline) was 104 % of control.
For `Cn1nc(N)c2ncc(C(Cl)(Cl)Cl)nc21`, the T/C runs as follows: under setting [1], 91 % of control; under setting [3], 105 % of control; under setting [5], 90 % of control.
As for `CCCCNC(C)(C)C(SS)c1ccc(C(F)(F)F)cc1` (centres undefined), the T/C was 100 % of control (dose: 6.25 mg/kg/injection, schedule: Q04DX003 (ip), vehicle: other); 105 % of control (dose: 12.5 mg/kg/injection, schedule: Q04DX003 (ip), vehicle: other); 110 % of control (dose: 25.0 mg/kg/injection, schedule: Q04DX003 (ip), vehicle: other).
Consider `C1=C\CCC2SC2CC/1` (centres undefined), for which the T/C reads like this: (dose: 100.0 mg/kg/injection, schedule: Q04DX002 (ip), vehicle: saline) 100 % of control; (dose: 200.0 mg/kg/injection, schedule: Q04DX002 (ip), vehicle: saline) 97 % of control; (dose: 400.0 mg/kg/injection, schedule: Q04DX002 (ip), vehicle: saline) 100 % of control.
